Data reported in patent US9469642B2, “Purinone compounds as kinase inhibitors” (Pharmacyclics LLC, priority 2012, dated 2016).

Key:
Assay type in all cases: biochemical
LCK = LCK (Homo sapiens, UniProt P06239); experiment: Kinase panel inhibition, LCK (one of the methods of Example 76a, 76b, 76c)
Protocol: (§1) Btk kinase activity is determined using a time-resolved fluorescence resonance energy transfer (TR-FRET) methodology. Measurements are performed in a reaction volume of 50 μL using 96-well assay plates. Kinase enzyme, inhibitor, ATP (at the Km for the kinase), and 1 peptide substrate (Biotin-AVLESEEELYSSARQ-NH2) are incubated in a reaction buffer composed of 20 mM Tris, 50 mM NaCl, MgCl2 (5-25 mM depending on the kinase), MnCl2 (0-10 mM), 1 mM DTT, 0.1 mM EDTA, 0.01% bovine serum albumin, 0.005% Tween-20, and 10% DMSO at pH 7.4 for one hour. The reaction is quenched by the addition of 1.2 equivalents of EDTA (relative to divalent cation) in 25 μL of 1× Lance buffer (Perkin-Elmer). Streptavidin-APC (Perkin-Elmer) and Eu-labeled p-Tyr100 antibody (Perkin-Elmer) in 1× Lance buffer are added in a 25 μL volume to give final concentrations of 100 nM and 2.5 nM, respectively, and the mixture is allowed to incubate for one hour. The TR-FRET signal is measured on a multimode plate reader with an excitation wavelength (λEx) of 330 nm and detection wavelengths (λEm) of 615 and 665 nm. Activity is determined by the ratio of the fluorescence at 665 nm to that at 615 nm. For each compound, enzyme activity is measured at various concentrations of compound. Negative control reactions are performed in the absence of inhibitor in replicates of six, and two no-enzyme controls are used to determine baseline fluorescence levels. Inhibition constants, Ki(app), were obtained using the program BatchKi (Kuzmic et al. (2000), Anal. Biochem. 286:45-50). IC50s are obtained according to the equation: IC50=[…]+[E]total/2;
(§2) For all kinases, [ATP]=Km^ATP, [Btk]total=0.5 nM and [Lck]total=6 nM.
(§3) Kinase activity is measured in vitro using electrophoretic mobility shift assay. The kinase reactions are assembled in a total volume of 25 μL in 384 well plates. The reactions comprise: BTK enzyme (1 nM, N-terminal His6-tagged, recombinant, full-length, human BTK purified from baculovirus Sf21 insect cell system), inhibitor, ATP (16 μM, the apparent Km for the kinase), fluorescently labeled peptide substrate (1 μM, FAM-GEEPLYWSFPAKKK-NH2) in a reaction buffer composed of 100 mM HEPES, pH7.5, 5 mM MgCl2 1 mM DTT, 0.1% bovine serum albumin, 0.01% Triton X-100, and 1% DMSO. The reaction is incubated for one hour and is quenched by the addition of 45 μL of termination buffer (100 mM HEPES, pH7.5, 0.01% Triton X-100, 30 mM EDTA). The terminated reactions are analyzed using 12 channel LabChip® 3000 microfluidic detection instrument (Caliper Life Sciences). The enzymatic phosphorylation of the peptide results in a change in net charge, enabling electrophoretic separation of product from substrate peptide. As substrate and product peptides are separated, two peaks of fluorescence are observed. Change in the relative fluorescence intensity of the substrate and product peaks is the parameter measured, reflecting enzyme activity. In the presence of an inhibitor, the ratio between product and substrate is altered:the signal of the product decreases, while the signal of the substrate increases.
(§4) Activity in each sample is determined as the product to sum ratio (PSR):P/(S+P), where P is the peak height of the product peptide and S is the peak height of the substrate peptide. For each compound, enzyme activity is measured at various concentrations (12 concentrations of compound spaced by 3× dilution intervals). Negative control samples (0%-inhibition in the absence of inhibitor) and positive control samples (100%-inhibition, in the presence of 20 mM EDTA) are assembled in replicates of four and are used to calculate %-inhibition values for each inhibitor at each concentration. Percent inhibition (Pinh) is determined using following equation: […]

BTK = molecular target: T1, BTK (Homo sapiens, UniProt Q06187); experiment: Btk in vitro inhibitory activity (kinase assay by one of Methods A, B or C)
T1 construct: purified from insect cells as a full-length construct containing a N-terminal 6×-His tag; His6 (N); host or cells: insect cells (baculovirus Sf21)
T1 sequence (Q06187 whole entry): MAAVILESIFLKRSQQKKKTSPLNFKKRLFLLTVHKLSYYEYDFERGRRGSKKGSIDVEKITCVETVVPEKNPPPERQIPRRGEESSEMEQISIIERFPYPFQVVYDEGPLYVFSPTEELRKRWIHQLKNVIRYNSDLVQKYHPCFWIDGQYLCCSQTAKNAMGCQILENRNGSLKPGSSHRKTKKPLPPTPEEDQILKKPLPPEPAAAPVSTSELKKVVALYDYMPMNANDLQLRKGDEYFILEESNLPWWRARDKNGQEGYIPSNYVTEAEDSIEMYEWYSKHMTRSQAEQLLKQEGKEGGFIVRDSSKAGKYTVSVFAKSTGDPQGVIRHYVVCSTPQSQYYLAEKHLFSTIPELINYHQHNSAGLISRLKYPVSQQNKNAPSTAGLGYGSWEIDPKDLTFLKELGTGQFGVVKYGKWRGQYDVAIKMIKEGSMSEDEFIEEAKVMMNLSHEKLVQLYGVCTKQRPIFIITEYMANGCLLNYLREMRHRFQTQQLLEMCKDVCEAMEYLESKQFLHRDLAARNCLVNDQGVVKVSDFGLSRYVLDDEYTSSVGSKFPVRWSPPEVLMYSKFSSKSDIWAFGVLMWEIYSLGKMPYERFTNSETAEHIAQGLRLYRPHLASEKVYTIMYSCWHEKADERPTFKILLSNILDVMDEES
Protocol: as §1, §2, §3, §4

EGFR = EGFR (Homo sapiens, UniProt P00533); experiment: Kinase panel inhibition, EGFR (one of the methods of Example 76a, 76b, 76c)
Sequence of EGFR (P00533 25-1210, species assumed): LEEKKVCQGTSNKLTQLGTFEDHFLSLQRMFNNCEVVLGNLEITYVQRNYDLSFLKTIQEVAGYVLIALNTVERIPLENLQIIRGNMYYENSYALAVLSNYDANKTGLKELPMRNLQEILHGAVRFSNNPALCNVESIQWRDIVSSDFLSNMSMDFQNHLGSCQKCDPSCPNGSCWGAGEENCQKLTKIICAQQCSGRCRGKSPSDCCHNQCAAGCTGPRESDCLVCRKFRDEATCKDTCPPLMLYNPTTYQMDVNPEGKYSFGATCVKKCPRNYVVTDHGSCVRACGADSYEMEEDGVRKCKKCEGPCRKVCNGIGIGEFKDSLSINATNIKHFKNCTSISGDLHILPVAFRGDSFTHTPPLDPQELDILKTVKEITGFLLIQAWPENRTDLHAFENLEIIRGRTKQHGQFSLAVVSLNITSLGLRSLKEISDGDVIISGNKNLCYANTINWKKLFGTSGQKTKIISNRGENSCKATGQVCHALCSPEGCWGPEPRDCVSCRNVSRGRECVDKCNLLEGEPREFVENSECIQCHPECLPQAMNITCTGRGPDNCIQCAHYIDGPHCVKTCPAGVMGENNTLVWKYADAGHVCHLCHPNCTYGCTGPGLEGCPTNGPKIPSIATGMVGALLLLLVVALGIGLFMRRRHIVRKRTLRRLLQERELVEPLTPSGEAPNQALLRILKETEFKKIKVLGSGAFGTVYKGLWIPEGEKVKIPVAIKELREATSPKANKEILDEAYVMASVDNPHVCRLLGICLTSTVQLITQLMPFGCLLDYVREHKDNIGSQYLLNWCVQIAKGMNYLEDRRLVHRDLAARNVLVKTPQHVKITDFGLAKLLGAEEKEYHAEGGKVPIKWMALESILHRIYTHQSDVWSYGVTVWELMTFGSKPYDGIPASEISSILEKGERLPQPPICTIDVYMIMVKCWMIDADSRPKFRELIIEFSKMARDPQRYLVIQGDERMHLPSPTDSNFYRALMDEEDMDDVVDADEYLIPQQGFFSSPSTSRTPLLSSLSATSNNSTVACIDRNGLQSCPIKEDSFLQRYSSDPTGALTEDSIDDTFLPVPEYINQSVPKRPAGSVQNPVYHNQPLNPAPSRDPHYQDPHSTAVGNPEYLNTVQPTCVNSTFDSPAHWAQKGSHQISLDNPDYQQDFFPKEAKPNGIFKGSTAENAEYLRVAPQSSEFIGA
Protocol: as §1, §2, §3, §4

Sequence of LCK (P06239 whole entry, species assumed): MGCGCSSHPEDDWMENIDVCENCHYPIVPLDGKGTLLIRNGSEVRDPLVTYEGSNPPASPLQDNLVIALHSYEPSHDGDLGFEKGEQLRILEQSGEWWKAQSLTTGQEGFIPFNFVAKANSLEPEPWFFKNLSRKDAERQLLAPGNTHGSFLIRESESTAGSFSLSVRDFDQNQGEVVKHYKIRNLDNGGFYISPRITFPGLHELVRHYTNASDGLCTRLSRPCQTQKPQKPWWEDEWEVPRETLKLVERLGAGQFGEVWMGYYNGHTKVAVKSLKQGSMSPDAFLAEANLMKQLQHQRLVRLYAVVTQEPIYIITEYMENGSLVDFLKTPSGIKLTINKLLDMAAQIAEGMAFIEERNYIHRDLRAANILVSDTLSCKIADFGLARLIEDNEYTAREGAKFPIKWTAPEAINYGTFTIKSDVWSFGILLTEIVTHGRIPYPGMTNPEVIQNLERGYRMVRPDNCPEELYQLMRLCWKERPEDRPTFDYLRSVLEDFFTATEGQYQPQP

Structure (SMILES) | IC50 (LCK) [nM] | IC50 (BTK) [nM] | IC50 (EGFR) [nM]
CNC/C=C/C(=O)Nc1cccc(-n2c(=O)n(-c3ccc(Oc4ccccc4)cc3)c3c(N)ncnc32)c1 [Compound 329, (E)-N-(3-(6-amino-8-oxo-7-(4-phenoxyphenyl)-7H-purin-9(8H)-yl)phenyl)-4-(methylamino)but-2-enamide] | 100 to 1000 | < 100 | < 100
Cc1cc(NC(=O)/C=C/CN(C)C2CC2)cc(-n2c(=O)n(-c3ccc(Oc4ccccc4)cc3C)c3c(N)ncnc32)c1 [Compound 298, (E)-N-(3-(6-amino-7-(2-methyl-4-phenoxyphenyl)-8-oxo-7H-purin-9(8H)-yl)-5-methylphenyl)-4-(cyclopropyl(methyl)amino)but-2-enamide] | 1000 to 10000 | < 100 | 100 to 1000
COCCOc1cc(N(C)C(=O)/C=C/CN(C)C)cc(-n2c(=O)n(-c3ccc(C)c(OC)c3)c3c(N)ncnc32)c1 [Compound 147, (E)-N-(3-(6-amino-7-(3-methoxy-4-methylphenyl)-8-oxo-7H-purin-9(8H)-yl)-5-(2-methoxyethoxy)phenyl)-4-(dimethylamino)-N-methylbut-2-enamide] | > 10000 | < 100 | > 10000
CN(C(=O)/C=C/CN(C)C1CC1)c1cccc(-n2c(=O)n(-c3ccc(OCc4cccc(F)c4)cc3)c3c(N)ncnc32)c1 [Compound 244, (E)-N-(3-(6-amino-7-(4-(3-fluorobenzyloxy)phenyl)-8-oxo-7H-purin-9(8H)-yl)phenyl)-4-(cyclopropyl(methyl)amino)-N-methylbut-2-enamide] | > 10000 | < 100 | 1000 to 10000
CN(C(=O)/C=C/c1ccccn1)c1cccc(-n2c(=O)n(-c3ccc(Oc4ccccc4)cc3)c3c(N)ncnc32)c1 [Compound 247, (E)-N-(3-(6-amino-8-oxo-7-(4-phenoxyphenyl)-7H-purin-9(8H)-yl)phenyl)-N-methyl-3-(pyridin-2-yl)acrylamide] | 1000 to 10000 | 100 to 1000 | 1000 to 10000
CN(C/C=C/C(=O)N1CC[C@@H](n2c(=O)n(-c3ccc(Oc4ccccc4)cc3)c3c(N)ncnc32)C1)C1CCC1 [Compound 64, (R,E)-6-amino-9-(1-(4-(cyclobutyl(methyl)amino)but-2-enoyl)pyrrolidin-3-yl)-7-(4-phenoxyphenyl)-7H-purin-8(9H)-one] | 100 to 1000 | < 100 | 1000 to 10000
COc1ccc(N(C)C(=O)/C=C/CN(C)C2CC2)cc1-n1c(=O)n(-c2ccc(Oc3ccccc3)cc2)c2c(N)ncnc21 [Compound 181, (E)-N-(3-(6-amino-8-oxo-7-(4-phenoxyphenyl)-7H-purin-9(8H)-yl)-4-methoxyphenyl)-4-(cyclopropyl(methyl)amino)-N-methylbut-2-enamide] | – | 100 to 1000 | –
C=CC(=O)N(C)c1cccc(-n2c(=O)n(-c3ccc(Cl)cc3)c3c(N)ncnc32)c1 [Compound 77, N-(3-(6-amino-7-(4-chlorophenyl)-8-oxo-7H-purin-9(8H)-yl)phenyl)-N-methylacrylamide] | – | < 100 | –
C=CC(=O)N1CCC[C@@H](n2c(=O)n(-c3ccc(Cl)cc3)c3c(N)ncnc32)C1 [Compound 90, (R)-9-(1-acryloylpiperidin-3-yl)-6-amino-7-(4-chlorophenyl)-7H-purin-8(9H)-one] | – | < 100 | –
C=CC(=O)N1CC[C@@H](n2c(=O)n(-c3ccc(C)c(OC)c3)c3c(N)ncnc32)C1 [Compound 82, (R)-9-(1-acryloylpyrrolidin-3-yl)-6-amino-7-(3-methoxy-4-methylphenyl)-7H-purin-8(9H)-one] | – | < 100 | –
CN(C(=O)/C=C/CN(C)C1CCC1)c1cccc(-n2c(=O)n(-c3ccc(Oc4ccccc4)cc3)c3c(N)ncnc32)c1 [Compound 35, (E)-N-(3-(6-amino-8-oxo-7-(4-phenoxyphenyl)-7H-purin-9(8H)-yl)phenyl)-4-(cyclobutyl(methyl)amino)-N-methylbut-2-enamide] | – | < 100 | –

Further lines, results first:

IC50 (LCK) [nM] | IC50 (BTK) [nM] | IC50 (EGFR) [nM] | Structure (SMILES)
1000 to 10000 | < 100 | 1000 to 10000 | CN(C(=O)/C=C/CN(C)C1CC1)c1cccc(-n2c(=O)n(-c3ccc(OCc4ccccc4)cc3)c3c(N)ncnc32)c1 [Compound 234, (E)-N-(3-(6-amino-7-(4-(benzyloxy)phenyl)-8-oxo-7H-purin-9(8H)-yl)phenyl)-4-(cyclopropyl(methyl)amino)-N-methylbut-2-enamide]
– | < 100 | – | C=CC(=O)N1CCC[C@@H](n2c(=O)n(-c3ccc(C)c(OC)c3)c3c(N)ncnc32)C1 [Compound 93, (R)-9-(1-acryloylpiperidin-3-yl)-6-amino-7-(3-methoxy-4-methylphenyl)-7H-purin-8(9H)-one]
– | < 100 | – | Nc1ncnc2c1n(-c1ccc(Oc3ccccc3)cc1)c(=O)n2-c1cccc(NC(=O)/C=C/CNC2CC2)c1 [Compound 116, (E)-N-(3-(6-amino-8-oxo-7-(4-phenoxyphenyl)-7H-purin-9(8H)-yl)phenyl)-4-(cyclopropylamino)but-2-enamide]
– | < 100 | – | CN(C(=O)/C=C/CN(C)C1CC1)c1cccc(-n2c(=O)n(-c3ccc(NC(=O)c4ccccc4)cc3)c3c(N)ncnc32)c1 [Compound 274, (E)-N-(4-(6-amino-9-(3-(4-(cyclopropyl(methyl)amino)-N-methylbut-2-enamido)phenyl)-8-oxo-8,9-dihydro-7H-purin-7-yl)phenyl)benzamide]
– | < 100 | – | COc1cc(NC(=O)/C=C/CN(C)C2CC2)cc(-n2c(=O)n(-c3ccc(Oc4ccccc4)cc3)c3c(N)ncnc32)c1 [Compound 263, (E)-N-(3-(6-amino-8-oxo-7-(4-phenoxyphenyl)-7H-purin-9(8H)-yl)-5-methoxyphenyl)-4-(cyclopropyl(methyl)amino)but-2-enamide]
– | < 100 | – | C=CC(=O)N1CC[C@@H](n2c(=O)n(-c3ccc(Cl)cc3)c3c(N)ncnc32)C1 [Compound 78, (R)-9-(1-acryloylpyrrolidin-3-yl)-6-amino-7-(4-chlorophenyl)-7H-purin-8(9H)-one]
– | < 100 | – | C=CC(=O)N(C)c1cccc(-n2c(=O)n(-c3ccc(C)c(OC)c3)c3c(N)ncnc32)c1 [Compound 76, N-(3-(6-amino-7-(3-methoxy-4-methylphenyl)-8-oxo-7H-purin-9(8H)-yl)phenyl)-N-methylacrylamide]
– | < 100 | – | CN(C(=O)/C=C/CN(C)C1CC1)c1cccc(-n2c(=O)n(-c3ccc(Oc4ccc(O)cc4)cc3)c3c(N)ncnc32)c1 [Compound 269, (E)-N-(3-(6-amino-7-(4-(4-hydroxyphenoxy)phenyl)-8-oxo-7H-purin-9(8H)-yl)phenyl)-4-(cyclopropyl(methyl)amino)-N-methylbut-2-enamide]
– | 100 to 1000 | – | CN(C(=O)/C=C/CN)c1cccc(-n2c(=O)n(-c3ccc(Oc4ccccc4)cc3)c3c(N)ncnc32)c1 [Compound 326, (E)-4-amino-N-(3-(6-amino-8-oxo-7-(4-phenoxyphenyl)-7H-purin-9(8H)-yl)phenyl)-N-methylbut-2-enamide]
– | 100 to 1000 | – | CN(C(=O)/C=C/CN(C)C1CC1)c1cccc(-n2c(=O)n(-c3ccc(C(=O)Nc4ccccc4)cc3)c3c(N)ncnc32)c1 [Compound 280, (E)-4-(6-amino-9-(3-(4-(cyclopropyl(methyl)amino)-N-methylbut-2-enamido)phenyl)-8-oxo-8,9-dihydro-7H-purin-7-yl)-N-phenylbenzamide]
